Paper PMC6770728, “CYP2D6 Genotype Predicts Plasma Concentrations of Tamoxifen Metabolites in Ethiopian Breast Cancer Patients” (Cancers, 2019)
Where two headings read alike, the source gives them in different places. Each block holds one compound with its values, some of them ahead of it.

How the values were obtained:
[1] = design: method as in PMID 21430657; settings: endoxifen concentration >5.97 ng/mL; cited from earlier work
[2] = Plasma concentrations of tamoxifen and its metabolites by LC-MS/MS in breast cancer patients on adjuvant tamoxifen; type: in vivo, human; settings: for Plasma concentration (median + IQR): 81 Ethiopian breast cancer patients, tamoxifen 20 mg/day for at least three months; for MR E/NDM: listed as E
Protocol: This study was conducted at the radiotherapy center of Tikur Anbessa specialized hospital, Addis Ababa University, Addis Ababa, Ethiopia. A total of 81 female breast cancer patients who were on adjuvant tamoxifen were enrolled. These patients had completed a full course of chemotherapy and were on tamoxifen 20 mg/day for at least three months. None of the study participants were taking any known CYP2D6 enzyme inhibitor as co-medication. The study protocol was approved by the Institutional Review Board (IRB) of the College of Health Sciences, Addis Ababa University (AAU) (Ref No: 011/16/2016), the Armauer Hansen Research Institute Ethical Review Committee (AAERC) (Ref No: PO26/16) and the Ethiopian National Research Ethics Review Committee (NRERC) (Ref No: 3.10/235/2017). Signed informed consent was obtained from individual study participants prior to study enrolment. Patients’ demographic, clinical and tumor characteristics including age, menopausal status, performance status, weight, height, body mass index (BMI), histologic type of the tumor, degree of differentiation, tumor size, lymph node involvement, hormone receptor status and co-morbidity status were collected.
Blood samples were collected in EDTA tube, centrifuged at 2500 g for 10 minutes, and the separated plasma was stored at −80 °C until analysis. Tamoxifen (Tam) and its major metabolites N-desmethyltamoxifen (NDM), (Z)-4-hydroxytamoxifen (4-HT), and (Z)-endoxifen (E) were quantified in the TDM Laboratory, Department of Clinical Pharmacology, Karolinska Institutet (Stockholm, Sweden), by ultra-high-performance liquid chromatography (UHPLC) followed by electrospray tandem mass spectrometry (LC-MS/MS). Briefly, 400 µL internal standard solution (containing 2 ng/mL of Z/E-endoxifen-d5, and 4-OH-tamoxifen-d5, and 20 ng/mL of N-desmethyl-tamoxifen-d5, and tamoxifen-d5) was added to 200 µL of thawed plasma samples and mixed for 10 minutes in a micro plate shaker (Vx-2400 Multitube mixer, Troemner, Philadelphia, USA), followed by centrifugation at 3400 rpm at 4 °C for 10 min. The supernatant was then transferred to new glass vial and evaporated to dryness using vacuum centrifuge. The residue was dissolved in 50 µL methanol over a microplate shaker for 10 min and the resulting solution was then centrifuged at 3400 rpm for 10 min at 4 °C. Ten microliter (10 µL) of the solution was injected into the LC system (Dionex Ultimate 3000, UHPLC focused, Thermo Scientific, California, USA) coupled with a mass spectrometer (TSQ Quantiva, Thermo Scientific). Separation occurred on an Accucore C-18 column (150 × 2.1 mm, Thermo Scientific). The mobile phase for gradient elution consisted of solution A (10 mmol/L ammonium formate with 0.005% formic acid in water) and solution B (10 mmol/L ammonium formate with 0.005% formic acid in 99% methanol). The LC conditions were: column oven temperature of 40 °C, flow rate of 0.50 mL/min, autosampler temperature of 10 °C. Detection was in positive ion mode using electrospray ionization and monitored using Trace Finder software (Thermo Scientific). Under this condition, the retention times were 3.25, 3.26, 3.38, 4.03, and 4.11 min for E-endoxifen, Z-endoxifen, 4-OH-tamoxifen, N-desmethyltamoxifen, and tamoxifen, respectively. Calibration curves were constructed by plotting the ratio of the area of the compound and the internal standard against the standard analyte concentration. Three quality control (QC) samples involving, (i) low-level QC [QCL] (0.3 ng/mL of E and 4-HT and 3 ng/mL of NDM and Tam, (ii) mid-level QC [QCM] (8 ng/mL of E and 4-HT and 80 ng/mL of NDM and Tam), and (iii) high level QC [QCH] (80 ng/mL of E and 4-HT and 800 ng/mL of NDM and Tam) were also included at each run.
Descriptive statistics were computed to explore the demographic characteristics, clinical profiles, genotype frequencies of participants. Chi-square test was used to compare the observed and expected genotype frequency according to Hardy–Weinberg equilibrium. […]

[3] = cited from earlier work
estrogen receptor (ER) = tested on: estrogen receptor (ER); design: method as in PMID 21451508; settings: endoxifen level 13 nM; cited from earlier work
[4] = ABCB1 c.4036A>G (rs3842) wild type genotype
[5] = UGT2B15 c.1568A>C (rs4148269) wild type genotype
[6] = carriers of the G allele for ABCB1 c.4036A>G (rs3842)

Median endoxifen concentration relative to 4-HT ([2]; 7.94 vs 3.04 ng/mL): 2.6 times | Plasma concentration (median + IQR) [2]: 7.94 (4.68–13.75) ng/mL | Plasma concentration (median + IQR) ([2]; listed as endoxifen): 7.94 ng/mL | Metabolic ratio of endoxifen to 4-hydroxy-tamoxifen, MR E/4-HT (median + IQR) ([2]; 81 patients, plasma): 2.85 (2.10–3.73) | Metabolic ratio of endoxifen to N-desmethyl-tamoxifen, MR E/NDM (median + IQR) ([2]; 81 patients, plasma): 0.038 (0.021–0.06) | MR E/4-HT [2, 4]: 3.02 | MR E/NDM [2, 4]: 0.041 | Patients with low endoxifen concentration (<5.9 ng/mL) / patients in group ([2]; CYP2D6 IM/IM diplotype): 1/1 | Patients with low endoxifen concentration (<5.9 ng/mL) / patients in group ([2]; CYP2D6 IM/PM diplotype): 3/3 | Proportion of patients with low endoxifen concentration (<5.9 ng/mL) ([2]; CYP2D6 NM/IM diplotype (5/12)): 41.7% | Proportion of patients with low endoxifen concentration (<5.9 ng/mL) ([2]; CYP2D6 NM/NM diplotype (11/35)): 31.4% | Proportion of patients with low endoxifen concentration (<5.9 ng/mL) ([2]; CYP2D6 NM/PM diplotype (6/9)): 66.7% | Patients with low endoxifen concentration (<5.9 ng/mL) / patients in group ([2]; CYP2D6 PM/PM diplotype): 1/1 | Median E/4-HT ratio [2, 5]: 2.06 | Proportion of patients with low endoxifen concentration (<5.9 ng/mL) ([2]; all 81 patients): 35.8% | Median E/4-HT ratio ([2]; carriers of C allele for UGT2B15 c.1568A>C (rs4148269)): 2.96 | MR E/4-HT [2, 6]: 2.52 | MR E/NDM [2, 6]: 0.022
Compound: CC/C(=C(\c1ccc(O)cc1)c1ccc(OCCNC)cc1)c1ccccc1 [Z-Endoxifen, (Z)-endoxifen]
Lower risk of additional breast cancer events [1]: 30% | Proportion of PMs still able to generate therapeutic concentrations of endoxifen ([3]; CYP2D6 PMs, threshold 5.9 ng/mL): 24% | Proportion of CYP2D6 PMs below endoxifen level of 13 nM ([3]; CYP2D6 poor metabolizers): 93% | Endoxifen plasma concentration lower than without CYP2D6 inhibitors ([3]; IMs on CYP2D6 inhibitors vs IMs not on CYP2D6 inhibitors): 38% | Endoxifen plasma concentration lower than without CYP2D6 inhibitors ([3]; NMs taking CYP2D6 inhibitors vs NMs not on CYP2D6 inhibitors): 58% | Proportion of patients unable to attain therapeutic threshold for endoxifen ([3]; Sweden): 30% | Proportion of patients unable to attain therapeutic threshold for endoxifen ([3]; U.S.): 20% | Occupancy of the estrogen receptor (ER) in vitro (estrogen receptor (ER)): 90%

Plasma concentration (median + IQR) [2]: 138 (105–200.5) ng/mL | Median plasma concentration [2, 5]: 173.8 ng/mL | Median plasma concentration ([2]; patients with at least one variant allele for UGT2B15 c.1568A>C (rs4148269)): 125.9 ng/mL | Plasma tamoxifen concentration of all included patients ([2]; the 81 patients included in the analysis): > 150 nM
Compound: CC/C(=C(\c1ccccc1)c1ccc(OCCN(C)C)cc1)c1ccccc1 [Tamoxifen]

Plasma concentration (median + IQR) [2]: 3.04 (2.15–4.0) ng/mL | Plasma concentration (median + IQR) ([2]; listed as 4-HT): 3.04 ng/mL | Metabolic ratio of 4-Hydroxy-tamoxifen to tamoxifen, MR 4-HT/Tam (median + IQR) ([2]; 81 patients, plasma): 0.022 (0.016–0.029)
Compound: CC/C(=C(\c1ccc(O)cc1)c1ccc(OCCN(C)C)cc1)c1ccccc1 [4-Hydroxy-tamoxifen, 4-hydroxy-tamoxifen]

Plasma concentration (median + IQR) [2]: 257 (185.5–343) ng/mL | Metabolic ratio of N-desmethyl-tamoxifen to tamoxifen, MR NDM/Tam (median + IQR) ([2]; human, in vivo): 1.81 (1.51–2.26)
Compound: CC/C(=C(\c1ccccc1)c1ccc(OCCNC)cc1)c1ccccc1 [N-Desmethyl-tamoxifen, N-desmethyltamoxifen]
